Measured values from patent US20230022157A1 (Achillion Pharmaceuticals, Inc., priority 2018, published 2023).

target: T1, Human Factor D (Homo sapiens, UniProt P00746); assay: Human Factor D Assay; format: biochemical; settings: Human Factor D 80 nM, substrate Z-L-Lys-SBzl, assay of Example 3; read-out: IC50 (Stars)
T1 construct: purified from human serum; purchased Complement Technology, Inc; host or cells: human serum (natural protein, not recombinant)
Summary of the method: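 Serum-purified human factor D (80 nM final) preincubated 5 min at room temperature with test compound in 50 mM Tris, 1M NaCl, pH 7.5. Z-L-Lys-SBzl substrate and DTNB then added, each at 100 μM final. IC50 from nonlinear regression of reaction rate against compound concentration.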

T1 sequence (P00746 26-253): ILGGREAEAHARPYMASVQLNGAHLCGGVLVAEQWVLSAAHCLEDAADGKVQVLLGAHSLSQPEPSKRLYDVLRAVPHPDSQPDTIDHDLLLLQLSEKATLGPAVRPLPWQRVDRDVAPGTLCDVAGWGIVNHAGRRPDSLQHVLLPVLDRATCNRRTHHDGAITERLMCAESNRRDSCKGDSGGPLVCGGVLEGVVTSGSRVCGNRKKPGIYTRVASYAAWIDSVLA

IC50 | Structure (SMILES)
< 1 µM | CC(=O)c1nn(CC(=O)N2[C@H](C(=O)NCCc3ccc(F)cc3)C[C@@]3(C)C[C@@H]23)c2c(C)cc(-c3cnc(C)nc3)cc12 [Compound 2, (1R,3S,5R)-2-(2-(3-Acetyl-7-methyl-5-(2-methylpyrimidin-5-yl)-1H-indazol-1-yl)acetyl)-N-(4-fluorophenethyl)-5-methyl-2-azabicyclo[3.1.0]hexane-3-carboxamide]
< 1 µM | CC(=O)c1nn(CC(=O)N2[C@H](C(=O)Nc3cccc(C(F)(F)F)c3F)C[C@@]3(C)C[C@@H]23)c2ccc(-c3cnc(C)nc3)cc12 [Compound 24, (1R,3S,5R)-2-(2-(3-Acetyl-5-(2-methylpyrimidin-5-yl)-1H-indazol-1-yl)acetyl)-N-(2-fluoro-3-(trifluoromethyl)phenyl)-5-methyl-2-azabicyclo[3.1.0]hexane-3-carboxamide]

same assay, conditions: Human Factor D 80 nM, substrate Z-L-Lys-SBzl; Table 2; read-out: IC50 (Stars)

IC50 | Structure (SMILES)
< 1 µM | CC(=O)c1cn(CC(=O)N2[C@H](C(=O)Nc3nc(Br)ccc3C)C[C@@]3(C)C[C@@H]23)c2c(C)cc(-c3cnc(C(C)O)nc3)cc12 (stereo partly drawn) [Compound 157, (1R,3S,5R)-2-(2-(3-acetyl-5-(2-(1-hydroxyethyl)pyrimidin-5-yl)-7-methyl-1H-indol-1-yl)acetyl)-N-(6-bromo-3-methylpyridin-2-yl)-5-methyl-2-azabicyclo[3.1.0]hexane-3-carboxamide]
< 1 µM | CC(=O)c1cn(CC(=O)N2[C@H](C(=O)Nc3nc(C(F)(F)F)ccc3C)C[C@@]3(C)C[C@@H]23)c2c(C)cc(-c3cnc4c(O)c(C)nn4c3)cc12 [Compound 231, (1R,3S,5R)-2-(2-(3-acetyl-5-(3-hydroxy-2-methylpyrazolo[1,5-a]pyrimidin-6-yl)-7-methyl-1H-indol-1-yl)acetyl)-5-methyl-N-(3-methyl-6-(trifluoromethyl)pyridin-2-yl)-2-azabicyclo[3.1.0]hexane-3-carboxamide]
< 1 µM | CC(=O)c1cn(CC(=O)N2[C@H](C(=O)Nc3nc(C(F)(F)F)ccc3C)C[C@@]3(C)C[C@@H]23)c2c(C)cc(-c3cnc(C)c(C)n3)cc12 [Compound 222, (1R,3S,5R)-2-(2-(3-acetyl-5-(5,6-dimethylpyrazin-2-yl)-7-methyl-1H-indol-1-yl)acetyl)-5-methyl-N-(3-methyl-6-(trifluoromethyl)pyridin-2-yl)-2-azabicyclo[3.1.0]hexane-3-carboxamide]
< 1 µM | CC(=O)c1cn(CC(=O)N2[C@H](C(=O)Nc3cncc(Br)n3)C[C@@]3(C)C[C@@H]23)c2c(C)cc(-c3cnc4cc(C)nn4c3)cc12 [Compound 210, (1R,3S,5R)-2-(2-(3-acetyl-7-methyl-5-(2-methylpyrazolo[1,5-a]pyrimidin-6-yl)-1H-indol-1-yl)acetyl)-N-(6-bromopyrazin-2-yl)-5-methyl-2-azabicyclo[3.1.0]hexane-3-carboxamide]
< 1 µM | CC(=O)c1cn(CC(=O)N2[C@H](C(=O)Nc3cncc(Br)n3)C[C@@]3(C)C[C@@H]23)c2c(C)cc(-c3cnc(C)nc3)cc12 [Compound 155, (1R,3S,5R)-2-(2-(3-acetyl-7-methyl-5-(2-methylpyrimidin-5-yl)-1H-indol-1-yl)acetyl)-N-(6-bromopyrazin-2-yl)-5-methyl-2-azabicyclo[3.1.0]hexane-3-carboxamide]

Further lines, the compound ahead of its results:

Structure (SMILES) | IC50
CC(=O)c1nn(CC(=O)N2[C@H](C(=O)N[C@@H](C)C3CCCCC3)C[C@@]3(C)C[C@@H]23)c2c(C)cc(-c3cnc(C)nc3)cc12 [Compound 72, (1R,3S,5R)-2-(2-(3-Acetyl-7-methyl-5-(2-methylpyrimidin-5-yl)-1H-indazol-1-yl)acetyl)-N—((S)-1-cyclohexylethyl)-5-methyl-2-azabicyclo[3.1.0]hexane-3-carboxamide] | < 1 µM
CC(=O)c1nn(CC(=O)N2[C@H](C(=O)Nc3nc(Br)c(F)cc3C)C[C@@]3(C)C[C@@H]23)c2c(C)cc(-c3cnc(C(C)(C)O)nc3)cc12 [Compound 68, (1R,3S,5R)-2-(2-(3-acetyl-5-(2-(2-hydroxypropan-2-yl)pyrimidin-5-yl)-7-methyl-1H-indazol-1-yl)acetyl)-N-(6-bromo-5-fluoro-3-methylpyridin-2-yl)-5-methyl-2-azabicyclo[3.1.0]hexane-3-carboxamide] | < 1 µM
CC(=O)c1nn(CC(=O)N2[C@H](C(=O)Nc3nc(Br)ccc3C)C[C@@]3(C)C[C@@H]23)c2c(C)cc(-c3cncc(S(C)(=O)=O)c3)cc12 [Compound 129, (1R,3S,5R)-2-(2-(3-Acetyl-7-methyl-5-(5-(methylsulfonyl)pyridin-3-yl)-1H-indazol-1-yl)acetyl)-N-(6-bromo-3-methylpyridin-2-yl)-5-methyl-2-azabicyclo[3.1.0]hexane-3-carboxamide] | < 1 µM
COC(C)(C)CNC(=O)[C@@H]1C[C@@]2(C)C[C@H]2N1C(=O)Cn1nc(C(C)=O)c2cc(-c3cnc(C)nc3)cc(C)c21 [Compound 87, (1R,3S,5R)-2-{2-[3-acetyl-7-methyl-5-(2-methylpyrimidin-5-yl)indazol-1-yl]acetyl}-N-(2-methoxy-2-methylpropyl)-5-methyl-2-azabicyclo[3.1.0]hexane-3-carboxamide] | < 1 µM
COC(=O)C1(c2cncc(-c3ccc4c(c3)c(C(C)=O)nn4CC(=O)N3[C@H](C(=O)Nc4nc(Br)ccc4C)C[C@@]4(C)C[C@@H]34)c2)CC1 [Compound 97, Methyl 1-(5-(3-acetyl-1-(2-((1R,3S,5R)-3-((6-bromo-3-methylpyridin-2-yl)carbamoyl)-5-methyl-2-azabicyclo[3.1.0]hexan-2-yl)-2-oxoethyl)-1H-indazol-5-yl)pyridin-3-yl)cyclopropane-1-carboxylate] | < 1 µM
CC(=O)c1nn(CC(=O)N2[C@H](C(=O)Nc3nc(Br)c(F)cc3C)C[C@@]3(C)C[C@@H]23)c2c(C)cc(-c3cnc(C(C)O)nc3)cc12 (stereo partly drawn) [Compound 96, (1R,3S,5R)-2-(2-(3-acetyl-5-(2-(1-hydroxyethyl)pyrimidin-5-yl)-7-methyl-11H-indazol-1-yl)acetyl)-N-(6-bromo-5-fluoro-3-methylpyridin-2-yl)-5-methyl-2-azabicyclo[3.1.0]hexane-3-carboxamide] | < 1 µM
CC(=O)c1nn(CC(=O)N2[C@H]3CC[C@H](C3)[C@H]2C(=O)Nc2nc(C(F)(F)F)ccc2C)c2c(C)cc(-c3cnc4cc(C)nn4c3)cc12 [Compound 223, (1S,3S,4R)-2-(2-(3-acetyl-7-methyl-5-(2-methylpyrazolo[1,5-a]pyrimidin-6-yl)-1H-indazol-1-yl)acetyl)-N-(3-methyl-6-(trifluoromethyl)pyridin-2-yl)-2-azabicyclo[2.2.1]heptane-3-carboxamide] | < 1 µM
CC(=O)c1nn(CC(=O)N2[C@H](C(=O)NCCC3(C)OCCO3)C[C@@]3(C)C[C@@H]23)c2c(C)cc(-c3cnc(C)nc3)cc12 [Compound 145, (1R,3S,5R)-2-{2-[3-acetyl-7-methyl-5-(2-methylpyrimidin-5-yl)indazol-1-yl]acetyl}-5-methyl-N-[2-(2-methyl-1,3-dioxolan-2-yl)ethyl]-2-azabicyclo[3.1.0]hexane-3-carboxamide] | < 1 µM
Cc1ncc(-c2cc3c(C(N)=O)nn(CC(=O)N4[C@H](C(=O)Nc5nc(Br)ccc5C5CC5)C[C@@]5(C)C[C@@H]45)c3c(C)n2)cn1 [Compound 112, 1-{2-[3-(6-Bromo-3-cyclopropyl-pyridin-2-ylcarbamoyl)-5-methyl-2-aza-bicyclo[3.1.0]hex-2-yl]-2-oxo-ethyl}-7-methyl-5-(2-methyl-pyrimidin-5-yl)-1H-pyrazolo[3,4-c]pyridine-3-carboxylic acid amide] | < 1 µM
